Measured values taken from ChEMBL document CHEMBL4028808, “Design and synthesis of selective CDK8/19 dual inhibitors: Discovery of 4,5-dihydrothieno[3',4':3,4]benzo[1,2-d]isothiazole derivatives” (Bioorg Med Chem, 2017).
The source made the active and inactive calls. The calls are words filed in the database; no cut-off is given here.

Columns and labels:
CDK8/Cyclin C = CDK8/Cyclin C (Homo sapiens, UniProt P49336); assay: Inhibition of kinase tracer-236 binding to GST-tagged CDK8/CyclinC (unknown origin) after 60 mins by TR-FRET assay; type: protein-complex assay
[1] = Cmax in ICR mouse plasma at 1 mg/kg, po administered as cassette dose by LC-MS/MS analysis; type: ADME, organism-based; set-up: dose 1 mg/kg, route oral
[2] = target: Mitogen-activated protein kinase 14 (Homo sapiens) (UniProt Q16539); assay: Inhibition of p38alpha (unknown origin) at <1 uM using MBP as substrate preincubated for 5 mins followed by substrate addition measured after 60 mins in presence of [gamma32P]ATP by scintillation counter method
Mus musculus [3] = assay: Toxicity in C.B17/Icr scid/scid Jcl mouse assessed as body weight loss at 1.25 mg/kg, po bid administered for 14 days measured post last dose; type: organism-based; settings: in vivo, 336 h
[4] = target: Dual specificity mitogen-activated protein kinase kinase 1 (Homo sapiens) (UniProt Q02750); assay: Inhibition of MEK1 (unknown origin) at <1 uM using GST-ERK1 as substrate preincubated for 5 mins followed by substrate addition measured after 20 mins in presence of [gamma33P]ATP by scintillation counter method
[5] = target: CDK2/Cyclin A2 (Homo sapiens) (UniProt P24941+P20248); assay: Inhibition of CDK2/cyclin A (unknown origin) at 1 uM using histone H1 as substrate preincubated for 5 mins followed by substrate addition measured after 20 mins in presence of [gamma33P]ATP by scintillation counter method relative to control; type: protein-complex assay
[6] = Volume of distribution at steady state in ICR mouse plasma at 0.1 mg/kg, iv administered as cassette dose by LC-MS/MS analysis; type: ADME, organism-based; settings: read-out: Vdss
[7] = target: Mitogen-activated protein kinase kinase kinase 19 (Homo sapiens) (UniProt Q56UN5); assay: Binding affinity to partial length wild-type human YSK4 (T1019 to H1328 residues) expressed in bacterial expression system assessed as unbound drug level at 300 nM by KINOMEscan assay
[8] = Toxicity in C.B17/Icr scid/scid Jcl mouse mouse; settings: in vivo
[9] = target: Serine/threonine-protein kinase PLK1 (Homo sapiens) (UniProt P53350); assay: Inhibition of PLK1 (unknown origin) at 1 uM using alpha-casein as substrate preincubated for 5 mins followed by substrate addition measured after 60 mins in presence of [gamma33P]ATP by scintillation counter method relative to control
SW480 = assay: Growth inhibition of human SW480 cells after 196 hrs by CellTiter-Glo luminescence assay relative to control; type: functional
[10] = target: MAP kinase-activated protein kinase 2 (Homo sapiens) (UniProt P49137); assay: Inhibition of MAPKAPK2 (unknown origin) at <1 uM using KKLNRTLSVA-NH2 as substrate preincubated for 5 mins followed by substrate addition measured after 10 mins in presence of [gamma33P]ATP by scintillation counter method
Mus musculus [11] = assay: In vivo inhibition of CDK8-mediated STAT1 phosphorylation in human RPMI8226 cells xenografted in C.B17/Icr scid/scid Jcl mouse at 1.25 mg/kg, po bid administered for 14 days measured 2 to 8 hrs post last dose; type: functional, organism-based
[12] = Mean residence time in ICR mouse plasma at 0.1 mg/kg, iv administered as cassette dose by LC-MS/MS analysis; type: ADME, organism-based
[13] = target: Aurora kinase B (Homo sapiens) (UniProt Q96GD4); assay: Inhibition of Aurora B (unknown origin) at <1 uM using aurora peptide as substrate preincubated for 5 mins followed by substrate addition measured after 60 mins in presence of [gamma33P]ATP by scintillation counter method
RPMI-8226 = assay: Growth inhibition of human RPMI8226 cells after 196 hrs by CellTiter-Glo luminescence assay; type: functional; settings: RPMI-8226, 196 h
[14] = target: Glycogen synthase kinase-3 beta (Homo sapiens) (UniProt P49841); assay: Inhibition of GSK3beta (unknown origin) at 1 uM using GSK3 substrate peptide preincubated for 5 mins followed by substrate addition measured after 30 mins in presence of [gamma33P]ATP by scintillation counter method relative to control
[15] = target: Cyclin-dependent kinase 8 (Homo sapiens, UniProt P49336); assay: Binding affinity to partial length wild-type human CDK8 (M1 to T360residues) expressed in bacterial expression system by kinome scan assay
[16] = target: Mitogen-activated protein kinase kinase kinase 5 (Homo sapiens) (UniProt Q99683); assay: Inhibition of ASK1 (unknown origin) at 1 uM using MBP as substrate preincubated for 5 mins followed by substrate addition measured after 60 mins in presence of [gamma33P]ATP by scintillation counter method relative to control
MV4-11 = assay: Growth inhibition of human MV411 cells after 196 hrs by CellTiter-Glo luminescence assay; type: functional; settings: MV4-11, 196 h
[17] = target: Mitogen-activated protein kinase kinase kinase 19 (Homo sapiens, UniProt Q56UN5); assay: Binding affinity to partial length wild-type human YSK4 (T1019 to H1328 residues) expressed in bacterial expression system by kinome scan assay
Mus musculus [18] = assay: In vivo inhibition of CDK8-mediated STAT1 phosphorylation in human RPMI8226 cells xenografted in C.B17/Icr scid/scid Jcl mouse at 2.5 mg/kg, po bid administered for 14 days measured 2 to 8 hrs post last dose; type: functional, organism-based
[19] = target: T1, Homeodomain-interacting protein kinase 1 (Homo sapiens, UniProt Q86Z02); assay: Binding affinity to partial length human HIPK1 (M146 to I555 residues) expressed in mammalian expression system by kinome scan assay
Target sequence in this assay (Q86Z02 whole entry, the tested form may be a part): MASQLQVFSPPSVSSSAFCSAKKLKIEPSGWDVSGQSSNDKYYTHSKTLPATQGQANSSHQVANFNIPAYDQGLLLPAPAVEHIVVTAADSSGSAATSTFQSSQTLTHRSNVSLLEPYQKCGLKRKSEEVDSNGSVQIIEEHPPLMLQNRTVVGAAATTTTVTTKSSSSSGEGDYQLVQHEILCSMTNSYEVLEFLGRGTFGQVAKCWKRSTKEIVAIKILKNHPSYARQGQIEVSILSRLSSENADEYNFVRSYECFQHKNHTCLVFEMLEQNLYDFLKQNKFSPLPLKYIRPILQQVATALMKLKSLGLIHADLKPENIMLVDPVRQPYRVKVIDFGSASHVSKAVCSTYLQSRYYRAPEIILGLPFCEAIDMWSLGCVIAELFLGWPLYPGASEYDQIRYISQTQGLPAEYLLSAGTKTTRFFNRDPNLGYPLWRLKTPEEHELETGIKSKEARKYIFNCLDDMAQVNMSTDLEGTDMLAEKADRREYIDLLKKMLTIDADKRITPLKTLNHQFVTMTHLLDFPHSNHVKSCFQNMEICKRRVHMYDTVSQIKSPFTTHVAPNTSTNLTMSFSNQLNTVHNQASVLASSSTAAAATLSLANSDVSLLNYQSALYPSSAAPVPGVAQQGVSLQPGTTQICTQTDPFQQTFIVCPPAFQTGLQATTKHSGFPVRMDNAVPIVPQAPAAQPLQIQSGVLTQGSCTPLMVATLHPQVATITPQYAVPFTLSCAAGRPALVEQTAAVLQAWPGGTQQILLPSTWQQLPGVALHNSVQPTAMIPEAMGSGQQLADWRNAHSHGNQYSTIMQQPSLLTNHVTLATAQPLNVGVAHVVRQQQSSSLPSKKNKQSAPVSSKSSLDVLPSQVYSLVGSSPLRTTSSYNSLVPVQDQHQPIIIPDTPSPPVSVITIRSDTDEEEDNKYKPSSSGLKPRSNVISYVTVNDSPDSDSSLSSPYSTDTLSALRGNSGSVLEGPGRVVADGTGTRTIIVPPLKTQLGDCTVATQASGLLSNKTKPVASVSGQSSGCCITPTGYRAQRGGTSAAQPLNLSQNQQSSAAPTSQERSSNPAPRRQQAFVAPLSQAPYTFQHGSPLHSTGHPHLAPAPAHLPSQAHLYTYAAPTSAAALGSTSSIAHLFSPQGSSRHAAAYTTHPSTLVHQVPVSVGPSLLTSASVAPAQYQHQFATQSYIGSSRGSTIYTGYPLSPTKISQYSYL

[20] = target: Cyclin-C/Cyclin-dependent kinase 19 (Homo sapiens, UniProt Q9BWU1); assay: Inhibition of kinase tracer-236 binding to GST-tagged CDK19/CyclinC (unknown origin) after 60 mins by TR-FRET assay; type: protein-complex assay
Mus musculus [21] = assay: Toxicity in C.B17/Icr scid/scid Jcl mouse assessed as body weight loss at 2.5 mg/kg, po qd administered for 14 days measured post last dose; type: organism-based; settings: in vivo, 336 h
[22] = target: Interleukin-1 receptor-associated kinase 1 (Homo sapiens) (UniProt P51617); assay: Binding affinity to partial length wild-type human […] (R194 to S712 residues) expressed in mammalian expression system assessed as unbound drug level at 300 nM by KINOMEscan assay
[23] = target: Tyrosine-protein kinase JAK1 (Homo sapiens) (UniProt P23458); assay: Inhibition of JAK1 (unknown origin) at <1 uM using biotinylated poly[Glu:Tyr] (4:1) as substrate pretreated for 5 mins followed by substrate addition measured after 10 mins by Alphascreen assay
[24] = target: CDK8/Cyclin C (Homo sapiens) (UniProt P49336+P24863); settings: 1 uM
Description: Inhibition of kinase tracer-236 binding to GST-tagged CDK8/CyclinC (unknown origin) at 1 uM after 60 mins by TR-FRET assay relative to control

[25] = target: Phosphatidylinositol 4,5-bisphosphate 3-kinase catalytic subunit alpha isoform (Homo sapiens) (UniProt P42336); assay: Inhibition of PI3Kalpha (unknown origin) at <1 uM
[26] = target: Cyclin-dependent kinase 19 (Homo sapiens, UniProt Q9BWU1); settings: 300 nM
[27] = target: T1, Homeodomain-interacting protein kinase 1; settings: 300 nM
Target sequence in this assay (Q86Z02 whole entry, looked up, the tested form may be a part): as the sequence (Q86Z02 whole entry, the tested form may be a part) above

Phosphatidylinositol 4,5-bisphosphate 3-kinase catalytic subunit alpha isoform (Homo sapiens), sequence (P42336 whole entry, canonical isoform): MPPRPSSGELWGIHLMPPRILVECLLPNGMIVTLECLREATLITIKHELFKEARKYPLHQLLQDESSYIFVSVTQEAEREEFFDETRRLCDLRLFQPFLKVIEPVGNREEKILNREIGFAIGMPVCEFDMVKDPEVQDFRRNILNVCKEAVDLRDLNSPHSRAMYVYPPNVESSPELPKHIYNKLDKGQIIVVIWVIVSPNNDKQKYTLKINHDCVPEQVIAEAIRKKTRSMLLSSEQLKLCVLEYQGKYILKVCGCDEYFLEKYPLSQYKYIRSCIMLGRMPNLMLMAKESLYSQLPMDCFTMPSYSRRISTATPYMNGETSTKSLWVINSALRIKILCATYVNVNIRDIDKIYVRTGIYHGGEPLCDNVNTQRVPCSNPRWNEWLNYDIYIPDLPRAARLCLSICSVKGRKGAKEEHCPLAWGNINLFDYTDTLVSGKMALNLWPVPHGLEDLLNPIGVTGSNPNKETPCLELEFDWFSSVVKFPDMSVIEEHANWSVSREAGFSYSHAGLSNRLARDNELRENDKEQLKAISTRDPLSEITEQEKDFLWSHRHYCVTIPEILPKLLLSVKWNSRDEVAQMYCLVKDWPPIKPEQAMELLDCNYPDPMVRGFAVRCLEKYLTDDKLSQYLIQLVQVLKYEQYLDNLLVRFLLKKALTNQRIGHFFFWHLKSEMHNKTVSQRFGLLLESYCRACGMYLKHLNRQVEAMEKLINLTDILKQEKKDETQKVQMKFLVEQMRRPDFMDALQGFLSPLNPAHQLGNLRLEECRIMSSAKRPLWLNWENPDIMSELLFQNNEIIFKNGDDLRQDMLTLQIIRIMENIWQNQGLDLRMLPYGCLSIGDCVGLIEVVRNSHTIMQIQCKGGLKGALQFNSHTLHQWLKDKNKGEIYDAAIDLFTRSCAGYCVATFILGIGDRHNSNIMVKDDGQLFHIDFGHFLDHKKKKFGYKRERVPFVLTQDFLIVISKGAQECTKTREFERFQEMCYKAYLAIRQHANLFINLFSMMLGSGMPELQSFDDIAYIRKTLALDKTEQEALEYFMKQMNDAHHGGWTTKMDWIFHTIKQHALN
Mitogen-activated protein kinase 14 (Homo sapiens), sequence (Q16539 whole entry): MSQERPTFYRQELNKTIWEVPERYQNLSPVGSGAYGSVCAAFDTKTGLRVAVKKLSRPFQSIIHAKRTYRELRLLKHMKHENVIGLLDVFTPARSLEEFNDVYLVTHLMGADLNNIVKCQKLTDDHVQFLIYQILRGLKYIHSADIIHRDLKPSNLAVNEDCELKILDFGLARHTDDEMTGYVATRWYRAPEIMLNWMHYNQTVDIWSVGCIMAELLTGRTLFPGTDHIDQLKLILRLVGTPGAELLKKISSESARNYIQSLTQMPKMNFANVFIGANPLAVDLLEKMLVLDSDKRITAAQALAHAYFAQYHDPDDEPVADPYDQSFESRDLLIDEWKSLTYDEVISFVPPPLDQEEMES
Dual specificity mitogen-activated protein kinase kinase 1 (Homo sapiens), sequence (Q02750 whole entry): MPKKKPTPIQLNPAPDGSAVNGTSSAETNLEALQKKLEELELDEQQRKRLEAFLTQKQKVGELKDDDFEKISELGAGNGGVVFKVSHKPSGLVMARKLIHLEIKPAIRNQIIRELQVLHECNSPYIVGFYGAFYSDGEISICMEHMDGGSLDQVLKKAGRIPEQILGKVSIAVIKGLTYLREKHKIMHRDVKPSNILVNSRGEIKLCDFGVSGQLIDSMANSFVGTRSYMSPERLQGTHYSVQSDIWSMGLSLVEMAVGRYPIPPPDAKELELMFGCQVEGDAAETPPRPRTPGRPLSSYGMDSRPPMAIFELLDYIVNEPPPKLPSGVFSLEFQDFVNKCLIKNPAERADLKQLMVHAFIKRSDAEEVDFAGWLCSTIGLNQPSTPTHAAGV
Aurora kinase B (Homo sapiens), sequence (Q96GD4 whole entry): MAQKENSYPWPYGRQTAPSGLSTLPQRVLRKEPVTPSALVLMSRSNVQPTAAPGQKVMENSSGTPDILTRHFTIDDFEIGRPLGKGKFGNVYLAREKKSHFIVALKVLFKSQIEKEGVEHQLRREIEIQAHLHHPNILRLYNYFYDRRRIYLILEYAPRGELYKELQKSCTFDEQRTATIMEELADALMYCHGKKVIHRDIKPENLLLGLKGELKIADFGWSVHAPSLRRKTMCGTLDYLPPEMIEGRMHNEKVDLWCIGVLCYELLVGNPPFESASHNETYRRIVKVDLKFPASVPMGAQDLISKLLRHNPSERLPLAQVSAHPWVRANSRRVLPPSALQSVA
Cyclin-C/Cyclin-dependent kinase 19, sequence (Q9BWU1 whole entry): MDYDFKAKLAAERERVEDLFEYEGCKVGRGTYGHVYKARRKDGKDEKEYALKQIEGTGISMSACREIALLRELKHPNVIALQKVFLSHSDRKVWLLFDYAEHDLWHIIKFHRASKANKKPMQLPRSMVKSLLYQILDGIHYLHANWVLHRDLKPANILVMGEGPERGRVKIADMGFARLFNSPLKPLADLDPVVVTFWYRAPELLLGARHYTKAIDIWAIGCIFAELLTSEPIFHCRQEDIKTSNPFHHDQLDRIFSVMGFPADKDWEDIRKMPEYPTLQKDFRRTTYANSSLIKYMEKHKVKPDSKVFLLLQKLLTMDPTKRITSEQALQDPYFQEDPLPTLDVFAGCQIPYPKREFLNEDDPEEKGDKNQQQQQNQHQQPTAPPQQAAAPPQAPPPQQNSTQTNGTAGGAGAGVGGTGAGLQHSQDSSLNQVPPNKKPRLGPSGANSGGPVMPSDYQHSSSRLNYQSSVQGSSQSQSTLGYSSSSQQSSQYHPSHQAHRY
Cyclin-C/Cyclin-dependent kinase 19, sequence (P24863 whole entry, further chain): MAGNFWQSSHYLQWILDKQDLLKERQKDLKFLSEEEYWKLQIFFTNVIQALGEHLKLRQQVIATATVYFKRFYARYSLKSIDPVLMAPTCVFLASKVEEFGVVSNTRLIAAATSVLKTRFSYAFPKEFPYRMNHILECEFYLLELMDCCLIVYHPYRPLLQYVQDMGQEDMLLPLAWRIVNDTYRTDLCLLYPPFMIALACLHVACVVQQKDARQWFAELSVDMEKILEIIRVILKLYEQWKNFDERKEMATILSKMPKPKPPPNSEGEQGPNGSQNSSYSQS
Cyclin-dependent kinase 19, sequence (Q9BWU1 whole entry): as the sequence (Q9BWU1 whole entry) above
Glycogen synthase kinase-3 beta (Homo sapiens), sequence (P49841 whole entry, looked up): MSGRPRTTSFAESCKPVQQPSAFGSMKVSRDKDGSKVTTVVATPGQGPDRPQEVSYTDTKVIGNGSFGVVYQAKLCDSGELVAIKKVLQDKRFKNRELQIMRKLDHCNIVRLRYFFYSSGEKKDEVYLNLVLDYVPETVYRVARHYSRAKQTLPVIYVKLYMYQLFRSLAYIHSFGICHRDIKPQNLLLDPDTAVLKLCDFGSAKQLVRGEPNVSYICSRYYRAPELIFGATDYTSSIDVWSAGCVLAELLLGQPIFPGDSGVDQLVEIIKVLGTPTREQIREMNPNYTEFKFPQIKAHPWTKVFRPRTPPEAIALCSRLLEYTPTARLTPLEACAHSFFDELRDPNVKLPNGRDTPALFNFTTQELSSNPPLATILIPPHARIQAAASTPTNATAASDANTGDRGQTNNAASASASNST

## COCCNC(=O)c1ccc(Oc2sc(C(N)=O)c3c2-c2sncc2CC3)cn1
CDK8/Cyclin C
  IC50: 0.46 nM
[1]
  Cmax: 362 ng/mL
[2]
  inhibition: inactive
Mus musculus [3]
  Activity: 0.9%
[4]
  inhibition: inactive
[5]
  inhibition: 62%
[6]
  Vd: 2.14 L/kg
[7]
  Fu: 0.41%
[8]
  MTD: 2.5 mg/kg
[9]
  inhibition: 4%
SW480
  growth inhibition (GI): >50%
[10]
  inhibition: inactive
Mus musculus [11]
  inhibition: Active
[12]
  MRT: 1.93 h
[13]
  inhibition: inactive
RPMI-8226
  GI50: 2.5 nM
[14]
  inhibition: 31%
[15]
  Kd: 46 nM
[16]
  inhibition: 0%
MV4-11
  GI50: 1.6 nM
[17]
  Kd: 97 nM
Mus musculus [18]
  inhibition: Active
[19]
  Kd: 160 nM
[20]
  IC50: 0.99 nM
Mus musculus [21]
  Activity: 10.2%
[22]
  Fu: 0.49%
[23]
  inhibition: inactive
[24]
  inhibition: 105%
[25]
  inhibition: inactive
[26]
  Fu: 0.046%
[27]
  Fu: 0.32%
